In US6794400B2, “4-substituted-1-(arylmethylidene)thiosemicarbazide, 4-substituted-1-(arylcarbonyl)thiosemicarbazide and analogs as activators of caspases and inducers of apoptosis and the use thereof” (Cytovia, Inc., priority 2001, dated 2004):

What was measured:
T-47D = test: Caspase cascade activation (N-(Ac-DEVD)-N'-ethoxycarbonyl-R110 fluorogenic substrate) in T-47D cells; assay type: cell-based, human; details: 48 h incubation; for Caspase activity Ratio (net RFU of test compound to control): 0.016 to 10 μM final; for EC50: Homo sapiens, T47D, read-out: Caspase potency EC50
Description: (§1) Human breast cancer cell lines T47D and ZR-75-1 were grown according to media component mixtures designated by American Type Culture Collection+10% FCS (Invitrogen Corporation), in a 5% CO2-95% humidity incubator at 37° C. T-47D and ZR-75-1 cells were maintained at a cell density between 50 and 80% confluency at a cell density of 0.1 to 0.6×10^6 cells/mL. Cells were harvested at 600×g and resuspended at 0.65×10^6 cells/mL into appropriate media+10% FCS. An aliquot of 45 μL of cells was added to a well of a 96-well microtiter plate containing 2.5 μL of a 10% DMSO in RPMI-1640 media solution containing 0.16 to 100 μM of 4-(bicyclo[2.2.1]hept-5-en-2-yl)-1-(pyridin-2-ylmethylidene)thiosemicarbazide or other test compound (0.016 to 10 μM final). An aliquot of 22.5 μL of cells was added to a well of a 384-well microtiter plate containing 2.5 μL of a 10% DMSO in RPMI-1640 media solution without test compound as the control sample. The samples were mixed by agitation and then incubated at 37° C. for 48 h in a 5% CO2-95% humidity incubator. After incubation, the samples were removed from the incubator and 25 μL of a solution containing 14 μM of N-(Ac-DEVD)-N′-ethoxycarbonyl-R110 (SEQ ID NO:1) fluorogenic substrate (Maxim Pharmaceuticals, Inc.; WO99/18856), 20% sucrose (Sigma), 20 mM DTT (Sigma), 200 mM NaCl (Sigma), 40 mM Na PIPES buffer pH 7.2 (Sigma), and 500 μg/ml lysolecithin (Calbiochem) was added. The samples were mixed by agitation and incubated at room temperature. Using a fluorescent plate reader (Model SpectraMax Gemini, Molecular Devices), an initial reading (T=0) was made approximately 1-2 min after addition of the substrate solution, employing excitation at 485 nm and emission at 530 nm, to determine the background fluorescence of the control sample. After the 3 h incubation, the samples were read for fluorescence as above (T=3 h).
(§2) The Relative Fluorescence Unit values (RFU) were used to calculate the sample readings as follows:
(§3) RFU(T=3 h)−Control RFU(T=0)=Net RFU(T=3 h)
(§4) The activity of caspase cascade activation was determined by the ratio of the net RFU value for 4-(bicyclo[2.2.1]hept-5-en-2-yl)-1-(pyridin-2-ylmethylidene)thiosemicarbazide or other test compound to that of control samples. The EC50 (nM) was determined by a sigmoidal dose-response calculation (Prism 2.0, GraphPad Software Inc.).

T47-D = test: Cell proliferation assay (CellTiter 96 AQUEOUS One) GI50, T47-D; assay type: cell-based; details: Homo sapiens, T47D; T47-D cells, 48 h
Description: (§5) All the cell lines were grown according to the conditions recommended by American Type Culture Collection. An aliquot of 90 μL of cells (2.2×10^4 cells/mL) was added to a well of a 96-well microtiter plate containing 10 μL of a 10% DMSO in RPMI-1640 media solution containing 1 nM to 100 μM of 4-(bicyclo[2.2.1]hept-5-en-2-yl)-1-(pyridin-2-ylmethylidene)thiosemicarbazide (0.1 nM to 10 μM final). An aliquot of 90 μL of cells was added to a well of a 96-well microtiter plate containing 10 μL of a 10% DMSO in RPMI-1640 media solution without compound as the control sample for maximal cell proliferation (AMax). The samples were mixed by agitation and then incubated at 37° C. for 48 h in a 5% CO2-95% humidity incubator. After incubation, the samples were removed from the incubator and 20 μL of CellTiter 96 AQUEOUS One Solution Cell Proliferation™ reagent (Promega) was added. […] Using an absorbance plate reader (Model 1420 Wallac Instruments), an initial reading (T=0) was made approximately 1-2 min after addition of the solution, employing absorbance at 490 nm. This determines the possible background absorbance of the test compounds. No absorbance for 4-(bicyclo[2.2.1]hept-5-en-2-yl)-1-(pyridin-2-ylmethylidene)thiosemicarbazide was found at 490 nm. After the 2-4 h incubation, the samples were read for absorbance as above (ATest). […]

SK-Br-3 = test: Cell proliferation assay GI50, SK-Br-3; assay type: cell-based; details: Homo sapiens; SK-Br-3 cells, 48 h
Description: as §5

NCI-H23 = test: Cell proliferation assay GI50, NCI-H23; assay type: cell-based; details: Homo sapiens; NCI-H23 cells, 48 h
Description: as §5

MCF-7 = test: Cell proliferation assay GI50, MCF-7; assay type: cell-based; details: Homo sapiens, MCF7; MCF-7 cells, 48 h
Description: as §5

ZR-75-1 = test: Caspase cascade activation (N-(Ac-DEVD)-N'-ethoxycarbonyl-R110 fluorogenic substrate) in ZR-75-1 cells; assay type: cell-based, human; details: 48 h incubation; for Caspase activity Ratio (net RFU of test compound to control): 0.016 to 10 μM final
Description: as §1, §2, §3, §4

DLD-1 = test: Cell proliferation assay GI50, DLD-1; assay type: cell-based; details: Homo sapiens; DLD-1 cells, 48 h
Description: as §5

K562 = test: Cell proliferation assay GI50, K562; assay type: cell-based; details: Homo sapiens; K562 cells, 48 h
Description: as §5

P388 = test: Cell proliferation assay GI50, drug sensitive P388; assay type: cell-based; details: Mus musculus; P388 (drug sensitive) cells
Description: as §5

PC-3 = test: Cell proliferation assay GI50, PC-3; assay type: cell-based; details: Homo sapiens; PC-3 cells, 48 h
Description: as §5

MDA-MB-231 = test: Cell proliferation assay GI50, MDA-MB-231; assay type: cell-based; details: Homo sapiens; MDA-MB-231 cells, 48 h
Description: as §5

P388/ADR = test: Cell proliferation assay GI50, drug resistant P388/ADR; assay type: cell-based; details: Mus musculus; P388/ADR (drug resistant) cells
Description: as §5

HeLa = test: Cell proliferation assay GI50, HeLa; assay type: cell-based; details: Homo sapiens; HeLa cells, 48 h
Description: as §5

| SMILES | Caspase activity Ratio (net RFU of test compound to control) (T-47D) | EC50 (T-47D) | GI50 (T47-D) | GI50 (SK-Br-3) | GI50 (NCI-H23) | GI50 (MCF-7) | Caspase potency EC50 (ZR-75-1) | Caspase activity Ratio (net RFU of test compound to control) (ZR-75-1) | GI50 (DLD-1) | GI50 (K562) | GI50 (P388) | GI50 (PC-3) | GI50 (MDA-MB-231) | GI50 (P388/ADR) | EC50 (ZR-75-1; Homo sapiens, read-out: Caspase potency EC50) | GI50 (HeLa) |
| --- | --- | --- | --- | --- | --- | --- | --- | --- | --- | --- | --- | --- | --- | --- | --- | --- |
| Cc1cccc(C=NNC(=S)NC2CC3C=CC2C3)n1 (stereo not shown) [Example 17, 4-(Bicyclo[2.2.1]hept-5-en-2-yl)-1-(6-methyl-pyridin-2-ylmethylidene)thiosemicarbazide] | 3.3 | 866 nM | 1000 nM | 750 nM | 3000 nM | 300 nM | INACTIVE | 2.5 | 1700 nM | 3000 nM |  |  |  |  |  |  |
| S=C(NN=Cc1ccccn1)NC1CC2C=CC1C2 (stereo not shown) [Example 16, 4-(Bicyclo[2.2.1]hept-5-en-2-yl)-1-(pyridin-2-ylmethylidene)thiosemicarbazide] | 3.5 | 360 nM | 5 nM | 5 nM | 30 nM | 7 nM |  | 3.0 | 90 nM | 50 nM | 20 nM | 30 nM | 30 nM | 20 nM | 862 nM | 60 nM |
